In patent US12564574B2, “Pharmaceutical composition for preventing or treating parkinson's disease, comprising 2-(4-(1-hydroxypropane-2-yl)phenyl)isoindoline-1-one compound” (YEP BIO CO. LTD., priority 2020, dated 2026):

Columns and labels:
[1] = system: PGC-1α protein in SH-SY5Y cells; assay: Immunoblot of PGC-1α protein after treating SH-SY5Y cell line with compounds; assay type: cell-based, human; conditions: SH-SY5Y cell line, 0.01, 0.1, 1, 10 μM, 48 hours
Procedure: To culture human neuroblasts SH-SY5Y cells (ATCC, Manassas, VA), 10% FBS (vol/vol, Welgene Gold Serum, cat #S 001-07) and DMEM (Welgene fresh media DMEM, cat #LM 001-05) including antibiotics were used, wherein the culture was performed in an incubator (Forma Direct Heat CO2 incubator, Thermo Scientific) at 37° C. in the presence of 5% carbon dioxide.
(§1) RIPA buffer was added to the SH-SY5Y cells and SN of C57L/6N mice, followed by homogenization with a homogenizer. Thereafter, the freezing and melting process was repeated three times, and quantification was performed using a BCA kit based on BSA to check the total amount of protein.
(§2) Lysates were identified by adding 2× SDS sample buffer, heating at 95° C. for 10 minutes to perform immunoblot, and then treating the desired protein with antibody.
(§3) In the immunoblot experiment, the darkness of the band was measured using the ImageJ (NIH, Bethesda, […], USA, http://rsb.info.nih.gov/ij/) program, and statistical analysis was performed using the darkness of the protein band in proportion to the loading control. The statistical analysis was performed using the GraphPad Prism version 7 (GraphPad Software) program. For the data, the unpaired two-tailed student's t-test was applied, wherein p<of 0.05 indicates statistical significance.
As shown in Example 3, an image of an immunoblot performed after treating the SH-SY5Y cell line with compounds (10 μM, 48 hours) is shown in FIG. 6.

[2] = system: Parkinson's disease model mice; assay: Pole test in AAV-PARIS Parkinson's disease model mice; assay type: in vivo; conditions: AAV-PARIS injected mice, YPD-01 diet 0.5% w/w
Text: (§4) To prepare Parkinson's disease model mice, AAV-PARIS was stereotaxically injected into the substantia nigra area. The mice were fed with Chow or YPD-01 (2-(4-(1-hydroxypropan-2-yl)phenyl) isoindoline-1-one) diet (0.5% w/w) for 4 weeks, and then the brain was collected and sectioned using a microtome. Dopaminergic neurons were visualized by carrying out a reaction in the mouse brain tissue sliced into 35 μm sections using TH antibody, a neuronal dopamine marker, then exposed to Vectastine ABC (Vector biolabs) and DAB (Sigma) solutions. Six […] were used in each experiment.
In order to identify whether YPD-01 is effective in inhibiting the death of dopamine neurons and Parkinson's disease-like behavioral abnormality in the Parkinson's disease model, as shown in Example 5 above, a pole test, which is the most reliable behavioral experiment, was performed.
To investigate behavioral abnormality, Parkinson's disease model mice were transferred to a pole test cage to have the mice adapted for 3 minutes, and then the mouse tails were held and placed on the tip of a vertically erected pole. The time from the moment the mouse took off its hind foot from the tip of the pole until the mouse came down to the floor was measured.

PGC-1α promoter = PGC-1α promoter luciferase assay (compound screening) in SH-PGC-1α-Luc reporter cells; assay type: cell-based, human; conditions: SH-PGC-1α-Luc cells, comparison of 14 drugs
Procedure: In order to prepare lentiviruses for preparation of stable reporter SH-SY5Y cells (SH-PGC-1α-Luc), 1-kb pGL3-PGC-1α promoter-luciferase was cloned to pGreenFire (System Biosciences), and a lentivirus construct was first prepared (provided by Akyosi Fukamizu from University of Tsukuba, Japan).
HEK293T cells cultured in 15 cm dish were subjected to transfection with 32 μg of pGreenFire vector, 9 μg of VSVg envelope, 6.25 μg of Prev, and 12.5 μg of pMDL.
After 48 hours, viral supernatants were collected and concentrated using ultracentrifugation, and viral pellets were dissolved with PBS. SH-SY5Y cells were treated with concentrated virus and screened with puromycin (1 μg/ml) a day later.
SH-PGC-1α-Luc was dispensed in a white, flat-bottomed 96-well plate, where culture was performed to accommodate 10,000 cells in 100 μl of DMEM (10% FBS+penicillin/streptomycin (P/S)) per well, and the cells were stabilized in an incubator at 37° C. in the presence of 5% CO2 for 12 hours.
The next day, each drug was added to 50 μl of warmed DMEM to the final concentration of 20 μM, then 50 μl of DMEM was removed from the cell-containing plate, and 50 μl of drug-containing DMEM was added (final concentration of 10 μM). Cells were then exposed to the drug for 48 hours, and luciferase activity was measured using SteadyGlo reagent (Promega). […]

[3] = system: dopamine neurons in substantia nigra of AAV-PARIS Parkinson's disease model mice; assay: Death of dopamine neurons in AAV-PARIS Parkinson's disease model mice (TH immunohistochemistry and immunoblot); assay type: in vivo; conditions: AAV-PARIS injected mice, diet 0.5% w/w for 4 weeks
Text: as §4
100 μl of pentobarbital (10 mg/ml) was injected into the abdomen of 8-week-old mice for anesthetization, mouse pericranium was peeled off, and then the left brain (X: 1.2, Y: −3.2, Z: −4.5) and right brain (X: 1.2, Y: 3.2, Z: −4.5) regions were marked based on the bregma. The marked portion was drilled, and the virus was injected slowly (30 seconds per 0.2 μl) through a syringe. After injecting the virus into the left brain, followed by a 2-minute standby, the same procedure was performed on the other side. After the surgical suture, the mice were carefully monitored, and breeding was followed in the cage until the recovery. […]

[4] = system: PGC-1α and main target genes (NRF-1, Tfam); assay: RT-qPCR of PGC-1α and its target genes (NRF-1, Tfam) in Parkinson's disease model mice; assay type: in vivo; conditions: substantia nigra of AAV-PARIS injected mice, diet for 4 weeks
Text: as §4
In the animal model experiment set up as in Example 5, whether the expression of PGC-1α and the main target genes (NRF-1, Tfam) of PGC-1α increases due to YPD-01 intake was measured by RT-qPCR method.
The midbrain of mice into which AAV-PARIS was stereotaxically injected and which were fed with Chow or YPD-01 diet for 4 weeks was collected, and RNA was extracted using the total RNA extraction kit (Intron Biotechnology). cDNA was synthesized using the cDNA synthesis kit (Enzynomics) and oligo dT from the extracted RNA. Using primers and SYBR green (Qiagen) reagents for the gene to be analyzed, gene expression in Rotor gene Q (Qiagen) was quantified via qPCR.

[5] = system: PGC-1α protein in the SN of mice; assay: Immunoblot of PGC-1α protein in the substantia nigra (SN) of mice fed compound diet; assay type: in vivo; conditions: diet 0.5% w/w for 1 week
Procedure: as §1, §2, §3
In FIG. 7, an immunoblot is shown for protein derived from the SN of mice fed with Chow, YPD-02 (2-[4-(3-oxo-1H-isoindol-2-yl)phenyl]propanoic acid), or YPD-01 (2-(4-(1-hydroxypropan-2-yl)phenyl) isoindoline-1-one) diet (0.5% w/w) for 1 week (quantitative graph quantified with β-actin/data was expressed as mean±SEM/statistical significance was measured by applying the unpaired two-tailed student t-test. * p<0.05, ** p<0.01.).

Compound	amount of PGC-1α protein (immunoblot) [1]	symptoms of behavioral abnormality (time to come down from the top of the pole) [2]	activity on PGC-1α promoter among the 14 drugs (FIG. 5) (PGC-1α promoter)	death of dopamine neurons (TH immunohistochemistry) [3]	death of dopamine neurons (TH immunoblot in substantia nigra) ([3]; quantified with β-actin)	PARIS-induced suppression of expression of NRF-1 (RT-qPCR) [4]	PARIS-induced suppression of expression of PGC-1α (RT-qPCR) [4]	PARIS-induced suppression of expression of Tfam (RT-qPCR) [4]	passage through the BBB [5]	protein level of PGC-1α in the SN (immunoblot) ([5]; quantified with β-actin)
CC(C)OC(=O)C(C)c1ccc(N2Cc3ccccc3C2=O)cc1 (stereo not drawn) [YPD-03, isopropyl 2-(4-(1-oxoisoindolin-2-yl)phenyl) propanoate]	increased the amount of PGC-1α protein in accordance with an increase in the drug concentration									
CC(C(=O)O)c1ccc(N2Cc3ccccc3C2=O)cc1 (stereo not drawn) [YPD-02, 2-[4-(3-oxo-1H-isoindol-2-yl)phenyl]propanoic acid, reference compound]	increased the amount of PGC-1α protein in accordance with an increase in the drug concentration									
CC(CO)c1ccc(N2Cc3ccccc3C2=O)cc1 (stereo not drawn) [YPD-01, 2-(4-(1-hydroxypropan-2-yl)phenyl) isoindoline-1-one]	increased the amount of PGC-1α protein regardless of the concentration	disappeared	highest	the death of dopamine neurons was meaningfully inhibited	the death of dopamine neurons by AAV-PARIS was inhibited	significantly recovered	significantly recovered	significantly recovered	successfully passed through BBB	increased the protein level of PGC-1α
